The assay has as its target human F508del-CFTR (Homo sapiens, UniProt P13569, DEL508-508). The assay can be described thus: F508del-CFTR cell surface expression (corrector activity), DiscoveRx ß-galactosidase complementation chemiluminescence assay in recombinant U2OS cell line.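 On all read-outs here: U2OS cells co-expressing ProLink-tagged F508del-CFTR and a membrane-anchored enzyme acceptor, where more surface CFTR restores β-galactosidase activity measured by chemiluminescence.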 The note with it: U2OS cells, 16h compound incubation; for EC50: EC50, F508del-CFTR cell surface expression, geomean of several measurements; for Emax: U2OS, in relation to the Emax of the corrector lumacaftor (=100%), arithmetic mean.

human F508del-CFTR, sequence (P13569 with tags, fused parts or gaps DEL508-508): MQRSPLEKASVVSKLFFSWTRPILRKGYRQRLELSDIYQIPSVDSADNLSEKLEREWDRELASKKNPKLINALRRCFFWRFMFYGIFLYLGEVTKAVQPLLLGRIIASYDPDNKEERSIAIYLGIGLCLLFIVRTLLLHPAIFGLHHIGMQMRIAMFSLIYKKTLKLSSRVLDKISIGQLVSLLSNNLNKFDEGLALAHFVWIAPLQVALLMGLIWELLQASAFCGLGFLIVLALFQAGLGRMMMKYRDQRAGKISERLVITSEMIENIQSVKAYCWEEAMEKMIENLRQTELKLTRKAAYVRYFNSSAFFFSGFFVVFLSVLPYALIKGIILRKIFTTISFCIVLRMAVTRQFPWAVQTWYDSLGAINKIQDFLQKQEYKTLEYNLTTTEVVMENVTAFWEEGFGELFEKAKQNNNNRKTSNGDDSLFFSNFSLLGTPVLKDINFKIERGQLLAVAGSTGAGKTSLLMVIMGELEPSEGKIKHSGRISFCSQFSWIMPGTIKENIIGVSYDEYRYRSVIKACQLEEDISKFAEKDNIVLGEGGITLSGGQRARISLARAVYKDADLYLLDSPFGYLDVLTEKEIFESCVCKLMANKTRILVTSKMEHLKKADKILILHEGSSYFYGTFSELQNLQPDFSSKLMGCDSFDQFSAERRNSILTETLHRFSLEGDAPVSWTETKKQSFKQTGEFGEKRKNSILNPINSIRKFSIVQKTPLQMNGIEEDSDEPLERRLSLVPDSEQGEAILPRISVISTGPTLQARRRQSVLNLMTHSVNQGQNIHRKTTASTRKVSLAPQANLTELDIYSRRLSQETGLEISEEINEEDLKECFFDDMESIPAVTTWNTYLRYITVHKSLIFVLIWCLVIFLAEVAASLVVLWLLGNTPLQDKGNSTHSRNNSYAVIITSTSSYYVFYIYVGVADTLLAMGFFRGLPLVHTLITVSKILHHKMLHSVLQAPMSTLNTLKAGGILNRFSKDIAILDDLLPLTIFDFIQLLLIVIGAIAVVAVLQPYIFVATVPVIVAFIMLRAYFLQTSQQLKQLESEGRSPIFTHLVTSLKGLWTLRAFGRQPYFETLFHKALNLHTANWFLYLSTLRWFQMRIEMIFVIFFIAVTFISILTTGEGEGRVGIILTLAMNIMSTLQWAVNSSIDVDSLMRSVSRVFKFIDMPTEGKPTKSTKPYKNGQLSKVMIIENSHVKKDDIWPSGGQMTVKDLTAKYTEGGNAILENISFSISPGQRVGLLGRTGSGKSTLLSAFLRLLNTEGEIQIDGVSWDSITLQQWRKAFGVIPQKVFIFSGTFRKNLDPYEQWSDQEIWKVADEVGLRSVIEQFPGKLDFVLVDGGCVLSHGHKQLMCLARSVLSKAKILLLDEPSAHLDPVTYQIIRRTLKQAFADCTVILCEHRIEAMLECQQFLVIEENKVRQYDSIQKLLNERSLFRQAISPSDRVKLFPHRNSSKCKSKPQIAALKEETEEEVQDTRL

Broadly, the EC50 is the concentration at which the effect is half-maximal. A word on the Emax: it is the size of the effect at its maximum, as opposed to the concentration needed. Regarding `COc1cc(CCNC(=O)[C@@H]2CC(=O)N(C)[C@@H](CC(C)C)C(=O)N3CCCC[C@@H]3C(=O)N[C@H](Cc3ccccc3)COc3cc(C)c4ncccc4c3C(=O)N2)on1` [Example 822, (9S,13S,19aR,22R)-22-benzyl-13-isobutyl-N-(2-(3-methoxyisoxazol-5-yl)ethyl)-2,12-dimethyl-7,11,14,20-tetraoxo-7,8,9,10,11,12,13,14,17,18,19,19a,20,21,22,23-hexadecahydro-16H-pyrido[2′,1′:6,7][1]oxa[4,7,10,14]tetraazacycloheptadecino[16,17-f]quinoline-9-carboxamide], the EC50 came out at 131 nM and the Emax was 363%.
On the same counts, the results for `Cc1cc2c3c(ccc2cn1)OC[C@@H](Cc1ccccc1)NC(=O)[C@H]1CCCCN1C(=O)[C@H](CC(C)C)N(C)C(=O)C[C@@H](C(=O)NCCn1nnc(C2CC2)n1)NC3=O` [Example 823, (9S,13S,19aR,22R)-22-benzyl-N-(2-(5-cyclopropyl-2H-tetrazol-2-yl)ethyl)-13-isobutyl-5,12-dimethyl-7,11,14,20-tetraoxo-7,8,9,10,11,12,13,14,17,18,19,19a,20,21,22,23-hexadecahydro-16H-pyrido[2′,1′:6,7][1]oxa[4,7,10,14]tetraazacycloheptadecino[16,17-f]isoquinoline-9-carboxamide] are 241 nM and 366%.
Take `Cc1cc2c3c(ccc2cn1)OC[C@@H](Cc1ccccc1)NC(=O)[C@@H](C)N(C)C(=O)[C@H](CC(C)C)N(C)C(=O)C[C@@H](C(=O)NCCc1cc(C)no1)NC3=O` [Example 824, (3S,7S,10R,13R)-13-benzyl-7-isobutyl-6,9,10,20-tetramethyl-N-(2-(3-methylisoxazol-5-yl)ethyl)-1,5,8,11-tetraoxo-1,2,3,4,5,6,7,8,9,10,11,12,13,14-tetradecahydro-[1]oxa[4,7,10,14]tetraazacycloheptadecino[16,17-f]isoquinoline-3-carboxamide]: the EC50 came out at 674 nM and the maximal effect (Emax) amounted to 354%.
As to `COc1cc(CCNC(=O)[C@@H]2CC(=O)N(C)[C@@H](CC(C)C)C(=O)N(C)[C@H](C)C(=O)N[C@H](Cc3ccccc3)COc3ccc4cnc(C)cc4c3C(=O)N2)on1` [Example 825, (3S,7S,10R,13R)-13-benzyl-7-isobutyl-N-(2-(3-methoxyisoxazol-5-yl)ethyl)-6,9,10,20-tetramethyl-1,5,8,11-tetraoxo-1,2,3,4,5,6,7,8,9,10,11,12,13,14-tetradecahydro-[1]oxa[4,7,10,14]tetraazacycloheptadecino[16,17-f]isoquinoline-3-carboxamide], the EC50 worked out at 353 nM and the Emax came to 388%.
On the same counts, the results for `Cc1cc2c3c(ccc2cn1)OC[C@@H](Cc1ccccc1)NC(=O)[C@@H](C)N(C)C(=O)[C@H](CC(C)C)N(C)C(=O)C[C@@H](C(=O)NCCc1nc(C2CC2)no1)NC3=O` [Example 826, (3S,7S,10R,13R)-13-benzyl-N-(2-(3-cyclopropyl-1,2,4-oxadiazol-5-yl)ethyl)-7-isobutyl-6,9,10,20-tetramethyl-1,5,8,11-tetraoxo-1,2,3,4,5,6,7,8,9,10,11,12,13,14-tetradecahydro-[1]oxa[4,7,10,14]tetraazacycloheptadecino[16,17-f]isoquinoline-3-carboxamide] are 283 nM and 340%.
The matching figures for `COc1cc(CCNC(=O)[C@@H]2CC(=O)N(C)[C@@H](CC(C)C)C(=O)N(C)[C@H](CN3CCC(F)(F)C3)C(=O)N[C@H](Cc3ccccc3)COc3cnc4ccc(F)cc4c3C(=O)N2)on1` [Example 827, (3S,7S,10R,13R)-13-benzyl-10-((3,3-difluoropyrrolidin-1-yl)methyl)-20-fluoro-7-isobutyl-N-(2-(3-methoxyisoxazol-5-yl)ethyl)-6,9-dimethyl-1,5,8,11-tetraoxo-1,2,3,4,5,6,7,8,9,10,11,12,13,14-tetradecahydro-[1]oxa[4,7,10,14]tetraazacycloheptadecino[17,16-c]quinoline-3-carboxamide]: 54 nM and 379%.
The matching figures for `COc1nc(C)cc2c1C(=O)N[C@H](C(=O)NC[C@@H](O)c1ccccc1)CC(=O)N(C)[C@@H](CC(C)C)C(=O)N(C)[C@H](CC(C)C)C(=O)N[C@H](Cc1ccccc1)CO2` [Example 828, (3R,6R,9S,13S)-3-benzyl-N-((S)-2-hydroxy-2-phenylethyl)-6,9-diisobutyl-16-methoxy-7,10,18-trimethyl-5,8,11,15-tetraoxo-2,3,4,5,6,7,8,9,10,11,12,13,14,15-tetradecahydropyrido[3,4-p][1]oxa[4,7,10,14]tetraazacycloheptadecine-13-carboxamide]: 299 nM and 317%.
Take `CC(C)C[C@H]1C(=O)N2CCCC[C@@H]2C(=O)N[C@H](Cc2ccccc2)COc2ccc3ncc(F)cc3c2C(=O)N[C@H](C(=O)NCCn2nnc(C3CC3)n2)CC(=O)N1C` [Example 829, (9S,13S,19aR,22R)-22-benzyl-N-(2-(5-cyclopropyl-2H-tetrazol-2-yl)ethyl)-5-fluoro-13-isobutyl-12-methyl-7,11,14,20-tetraoxo-7,8,9,10,11,12,13,14,17,18,19,19a,20,21,22,23-hexadecahydro-16H-pyrido[2′,1′:6,7][1]oxa[4,7,10,14]tetraazacycloheptadecino[16,17-f]quinoline-9-carboxamide]: the EC50 is 142 nM and the Emax worked out at 320%.
The matching figures for `COCCn1cc(CCNC(=O)[C@@H]2CC(=O)N(C)[C@@H](CC(C)C)C(=O)N(C)C3(CC3)C(=O)N[C@H](Cc3ccccc3)COc3cnc4ccc(F)cc4c3C(=O)N2)cn1` [Example 830, (3′S,7′S,13′R)-13′-benzyl-20′-fluoro-7′-isobutyl-N-(2-(1-(2-methoxyethyl)-1H-pyrazol-4-yl)ethyl)-6′,9′-dimethyl-1′,5′,8′,11′-tetraoxo-2′,3′,4′,5′,6′,7′,8′,9′,11′,12′,13′,14′-dodecahydro-1′H-spiro[cyclopropane-1,10′-[1]oxa[4,7,10,14]tetraazacycloheptadecino[17,16-c]quinoline]-3′-carboxamide]: 1040 nM and 310%.
`COc1nccc2c1C(=O)N[C@H](C(=O)NCC(F)(F)c1nc(C3CC3)no1)CC(=O)N(C)[C@@H](CC(C)C)C(=O)N1CCCC[C@@H]1C(=O)N[C@H](Cc1ccccc1)CO2` [Example 831, (7S,11S,17aR,20R)-20-benzyl-N-(2-(3-cyclopropyl-1,2,4-oxadiazol-5-yl)-2,2-difluoroethyl)-11-isobutyl-4-methoxy-10-methyl-5,9,12,18-tetraoxo-5,6,7,8,9,10,11,12,15,16,17,17a,18,19,20,21-hexadecahydro-14H-dipyrido[2,1-f:3′,4′-p][1]oxa[4,7,10,14]tetraazacycloheptadecine-7-carboxamide]: the EC50 came to 491 nM and the Emax came to 231%.
The matching figures for `COc1nccc2c1C(=O)N[C@H](C(=O)NCCn1nc3ccccc3n1)CC(=O)N(C)[C@@H](CC(C)C)C(=O)N1CCCC[C@@H]1C(=O)N[C@H](Cc1ccccc1)CO2` [Example 832, (7S,11S,17aR,20R)-N-(2-(2H-benzo[d][1,2,3]triazol-2-yl)ethyl)-20-benzyl-11-isobutyl-4-methoxy-10-methyl-5,9,12,18-tetraoxo-5,6,7,8,9,10,11,12,15,16,17,17a,18,19,20,21-hexadecahydro-14H-dipyrido[2,1-f:3′,4′-p][1]oxa[4,7,10,14]tetraazacycloheptadecine-7-carboxamide]: 518 nM and 367%.
On the same counts, the results for `COc1nccc2c1C(=O)N[C@H](C(=O)NCCn1nnc(C3CC3)n1)CC(=O)N(C)[C@@H](CC(C)C)C(=O)N1CCCC[C@@H]1C(=O)N[C@H](Cc1ccccc1)CO2` [Example 833, (7S,11S,17aR,20R)-20-benzyl-N-(2-(5-cyclopropyl-2H-tetrazol-2-yl)ethyl)-11-isobutyl-4-methoxy-10-methyl-5,9,12,18-tetraoxo-5,6,7,8,9,10,11,12,15,16,17,17a,18,19,20,21-hexadecahydro-14H-dipyrido[2,1-f:3′,4′-p][1]oxa[4,7,10,14]tetraazacycloheptadecine-7-carboxamide] are 615 nM and 411%.
In the case of `C#Cc1nn(CCNC(=O)[C@@H]2CC(=O)N(C)[C@@H](CC(C)C)C(=O)N3CCCC[C@@H]3C(=O)N[C@H](Cc3ccccc3)COc3cc(C)nc(OC)c3C(=O)N2)nc1C` [Example 834, (7S,11S,17aR,20R)-20-benzyl-N-(2-(4-ethynyl-5-methyl-2H-1,2,3-triazol-2-yl)ethyl)-11-isobutyl-4-methoxy-2,10-dimethyl-5,9,12,18-tetraoxo-5,6,7,8,9,10,11,12,15,16,17,17a,18,19,20,21-hexadecahydro-14H-dipyrido[2,1-f:3′,4′-p][1]oxa[4,7,10,14]tetraazacycloheptadecine-7-carboxamide], the EC50 came to 240 nM and the Emax was 300%.
The matching figures for `COc1nc(C)cc2c1C(=O)N[C@H](C(=O)NCCn1nnc(C3CC3)n1)CC(=O)N(C)[C@@H](CC(C)C)C(=O)N1CCCC[C@@H]1C(=O)N[C@H](Cc1ccccc1)CO2` [Example 835, (7S,11S,17aR,20R)-20-benzyl-N-(2-(5-cyclopropyl-2H-tetrazol-2-yl)ethyl)-11-isobutyl-4-methoxy-2,10-dimethyl-5,9,12,18-tetraoxo-5,6,7,8,9,10,11,12,15,16,17,17a,18,19,20,21-hexadecahydro-14H-dipyrido[2,1-f:3′,4′-p][1]oxa[4,7,10,14]tetraazacycloheptadecine-7-carboxamide]: 363 nM and 326%.

(Values after patent US20240208992A1, “MACROCYCLES AS CFTR MODULATORS” (Idorsia Pharmaceuticals Ltd, priority 2021, published 2024).)
